The values below come from BindingDB's records for patent US20250197406 (1ST Biotherapeutics, 2025).

For the experiment, the target named is Mitogen-activated protein kinase kinase kinase kinase 1 (Homo sapiens, UniProt Q92918). Briefly: HPK1 Kinase Assay. On the procedure: HPK1 kinase activity was measured by Promega's ADP-Glo™ kinase assay. In this assay, 5 ng of recombinant human HPK1 (signalchem) is incubated with 5 μL of compounds (0.5% DMSO), 5 μL of MBP (0.5 μg/μl) and 5 μL of ATP (25 μM) in buffer (40 mM Tris, 7.5; 20 mM MgCl2; 0.1 mg/ml BSA; 50 μM DTT.). The assay was started by incubating the reaction mixture in a 96-well plate at 30° C. for 40 minutes. After the incubation, 25 μL ADP-Glo reagent was added and the reaction was incubated at room temperature for 40-min to stop the reaction and degrade residual ATP. The ADP product was then converted to ATP by adding 50 μL per well of detection reagent. Luminescence was detected after 30-min room temperature incubation with the Molecular device I3X plate reader. The IC50 values were calculated from a series of percent inhibition values determined at a range of inhibitor concentration using software routines as implemented in the GraphPad Prism 7 software and SigmaPlot13.0.
Sequence of Mitogen-activated protein kinase kinase kinase kinase 1 (Q92918 whole entry): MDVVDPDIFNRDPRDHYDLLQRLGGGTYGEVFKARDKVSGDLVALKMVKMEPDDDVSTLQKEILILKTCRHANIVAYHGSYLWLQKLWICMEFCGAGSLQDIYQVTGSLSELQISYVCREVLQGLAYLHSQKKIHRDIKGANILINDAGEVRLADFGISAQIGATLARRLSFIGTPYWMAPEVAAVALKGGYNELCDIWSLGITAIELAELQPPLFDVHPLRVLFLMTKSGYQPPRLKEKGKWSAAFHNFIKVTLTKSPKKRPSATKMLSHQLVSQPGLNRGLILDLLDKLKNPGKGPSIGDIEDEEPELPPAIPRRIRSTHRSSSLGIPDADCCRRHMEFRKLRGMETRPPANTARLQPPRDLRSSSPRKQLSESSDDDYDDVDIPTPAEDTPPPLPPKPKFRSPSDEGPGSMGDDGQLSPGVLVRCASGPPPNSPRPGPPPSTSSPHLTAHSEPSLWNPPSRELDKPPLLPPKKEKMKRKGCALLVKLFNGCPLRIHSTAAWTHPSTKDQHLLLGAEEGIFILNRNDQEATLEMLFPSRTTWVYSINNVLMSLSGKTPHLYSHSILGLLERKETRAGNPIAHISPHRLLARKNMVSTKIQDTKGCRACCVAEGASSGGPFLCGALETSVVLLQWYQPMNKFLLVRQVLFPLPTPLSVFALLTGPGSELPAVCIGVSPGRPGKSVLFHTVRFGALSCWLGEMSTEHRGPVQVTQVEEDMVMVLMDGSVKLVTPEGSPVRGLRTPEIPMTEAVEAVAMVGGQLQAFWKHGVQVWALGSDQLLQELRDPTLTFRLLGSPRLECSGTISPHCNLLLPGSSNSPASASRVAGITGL

The IC50 is the point on the concentration scale where inhibition reaches its midpoint. Low readings indicate greater potency, high ones weaker potency. The compound `CC(C)Nc1c(F)c(Cl)c(-c2cn3cc(NC(=O)C4(F)CC4)nc3cn2)c2cn[nH]c12` [US20250197406, Example 52] gave an IC50 of less than 100 nM.

`CC(=O)Nc1cn2cc(-c3c(Cl)c(F)c(NC(C)C)c4[nH]ncc34)ncc2n1` [US20250197406, Example 43] returned an IC50 of less than 100 nM.
